Laboratory results as given in patent publication US20250304559A1, “Ether-Linked Antiviral Compounds” (Pfizer Inc., priority 2021, published 2025).
Read-outs that look alike come from different tables or passages of the source.

System: SARS-CoV-2 (USA_WA1/2020)
Experiment: Antiviral Activity from SARS-CoV-2 Infection (cytopathic effect, Cell Titer-Glo)
Format: cell-based
Settings: VeroE6 cells enriched for hACE2, MOI 0.002, 3-day incubation, tested alone or with P-gp inhibitor CP-100356 2 μM (table does not say which), read-out: Geometric Mean EC50
[1] = Severe acute respiratory syndrome coronavirus 2, Vero C1008, 72 h

Row | Structure (SMILES) | EC50 [1] [nM] | EC50 [nM]
1 | CCn1nc(C)cc1OCC(=O)[C@H](C[C@@H]1CCNC1=O)NC(=O)[C@@H]1[C@@H]2[C@H](CN1C(=O)[C@@H](NC(=O)C(F)(F)F)C(C)C)C2(C)C [Example 43, (1R,2S,5S)-N-{(2S)-4-[(1-ethyl-3-methyl-1H-pyrazol-5-yl)oxy]-3-oxo-1-[(3S)-2-oxopyrrolidin-3-yl]butan-2-yl}-6,6-dimethyl-3-[N-(trifluoroacetyl)-L-valyl]-3-azabicyclo[3.1.0]hexane-2-carboxamide] | 642 | –
2 | CCc1cc(OCC(=O)[C@H](C[C@@H]2CCNC2=O)NC(=O)[C@@H]2[C@@H]3[C@H](CN2C(=O)[C@@H](NC(=O)C(F)(F)F)C(C)(C)C)C3(C)C)n(C)n1 [Example 26, (1R,2S,5S)-N-{(2S)-4-[(3-ethyl-1-methyl-1H-pyrazol-5-yl)oxy]-3-oxo-1-[(3S)-2-oxopyrrolidin-3-yl]butan-2-yl}-6,6-dimethyl-3-[3-methyl-N-(trifluoroacetyl)-L-valyl]-3-azabicyclo[3.1.0]hexane-2-carboxamide] | 171 | –
3 | CC(C)(C)[C@H](NC(=O)C(F)(F)F)C(=O)N1C[C@H]2[C@@H]([C@H]1C(=O)N[C@@H](C[C@@H]1CCNC1=O)C(=O)COc1ccccc1)C2(C)C [Example 20, (1R,2S,5S)-6,6-dimethyl-3-[3-methyl-N-(trifluoroacetyl)-L-valyl]-N-{(2S)-3-oxo-1-[(3S)-2-oxopyrrolidin-3-yl]-4-phenoxybutan-2-yl}-3-azabicyclo[3.1.0]hexane-2-carboxamide] | 14.7 | –
4 | Cc1ccc(OCC(=O)[C@H](C[C@@H]2CCNC2=O)NC(=O)[C@@H]2[C@@H]3[C@H](CN2C(=O)[C@@H](NC(=O)C(F)(F)F)C(C)(C)C)C3(C)C)cn1 [Example 19, (1R,2S,5S)-6,6-dimethyl-N-{(2S)-4-[(6-methylpyridin-3-yl)oxy]-3-oxo-1-[(3S)-2-oxopyrrolidin-3-yl]butan-2-yl}-3-[3-methyl-N-(trifluoroacetyl)-L-valyl]-3-azabicyclo[3.1.0]hexane-2-carboxamide] | 37.2 | –
5 | CC(C)[C@H](NS(C)(=O)=O)C(=O)N1CCC(C(F)(F)F)C[C@H]1C(=O)N[C@@H](C[C@@H]1CCNC1=O)C(=O)COc1ccc(F)cc1F (single isomer, unassigned) [Example 41, (2R*,4S*)-N-{(2S)-4-(2,4-difluorophenoxy)-3-oxo-1-[(3S)-2-oxopyrrolidin-3-yl]butan-2-yl}-1-[N-(methanesulfonyl)-L-valyl]-4-(trifluoromethyl)piperidine-2-carboxamide, DIAST-2] | – | 224
6 | CCc1cc(OCC(=O)[C@H](C[C@@H]2CCNC2=O)NC(=O)[C@@H]2[C@@H]3[C@H](CN2C(=O)[C@@H](NC(=O)C(F)(F)F)C(C)C)C3(C)C)n(C)n1 [Example 45, (1R,2S,5S)-N-{(2S)-4-[(3-ethyl-1-methyl-1H-pyrazol-5-yl)oxy]-3-oxo-1-[(3S)-2-oxopyrrolidin-3-yl]butan-2-yl}-6,6-dimethyl-3-[N-(trifluoroacetyl)-L-valyl]-3-azabicyclo[3.1.0]hexane-2-carboxamide] | 384 | –
7 | CC(C)[C@H](NC(=O)C(F)(F)F)C(=O)N1C[C@H]2[C@@H]([C@H]1C(=O)N[C@@H](C[C@@H]1CCNC1=O)C(=O)COc1ccc(F)nc1)C2(C)C [Example 31, (1R,2S,5S)-N-{(2S)-4-[(6-fluoropyridin-3-yl)oxy]-3-oxo-1-[(3S)-2-oxopyrrolidin-3-yl]butan-2-yl}-6,6-dimethyl-3-[N-(trifluoroacetyl)-L-valyl]-3-azabicyclo[3.1.0]hexane-2-carboxamide] | 167 | –
8 | CC(C)[C@H](NS(C)(=O)=O)C(=O)N1CCC(C(F)(F)F)C[C@H]1C(=O)N[C@@H](C[C@@H]1CCNC1=O)C(=O)COc1ccc(F)cc1F (single isomer, unassigned) [Example 71, (2R*,4S*)-N-{(2S)-4-(2,4-difluorophenoxy)-3-oxo-1-[(3S)-2-oxopyrrolidin-3-yl]butan-2-yl}-1-[N-(methanesulfonyl)-L-valyl]-4-(trifluoromethyl)piperidine-2-carboxamide, DIAST-1] | – | 8310
